pIC50, pKi: −log10 of the molar value.

What is called inhibition is how much of the control response was suppressed. As a reminder, the pIC50 is −log10 of the IC50, conventionally taken in molar units. A lower pIC50 goes with a high IC50. One may read the pKi as the negative decadic logarithm of the Ki, by convention in mol/L.

Assay [1] has as its target Butyrylcholinesterase (Equus caballus) (UniProt Q9N1N9). Description: Inhibition of horse serum BuChE at 10 uM using butyrylthiocholine chloride by spectrophotometry.
Assay [2] deals with T1, Acetylcholinesterase (Homo sapiens, UniProt P22303). Description: Inhibition of human erythrocyte AChE using acetylthiocholine chloride by spectrophotometry.
In assay [3] the target is T2, Acetylcholinesterase (Electrophorus electricus, UniProt O42275). Description: Inhibition of electric eel AChE using acetylthiocholine chloride by spectrophotometry.
In assay [4] the target is T1, Acetylcholinesterase. Description: Inhibition of human erythrocyte AChE at 10 uM using acetylthiocholine chloride by spectrophotometry.
In assay [5] the target is T2, Acetylcholinesterase. Description: Non-competitive inhibition of electric eel AChE using acetylthiocholine chloride by Lineweaver-Burk plot method and Ellman's method based spectrophotometry. For orientation: DTNB colorimetry detects thiols as they appear.
The target of assay [6] is T2, Acetylcholinesterase. Description: Reversible mixed type inhibition of electric eel AChE using acetylthiocholine chloride by Lineweaver-Burk plot method and Ellman's method based spectrophotometry.
In assay [7] the target is Butyrylcholinesterase (Equus caballus, UniProt Q9N1N9). The experiment in a line: Inhibition of horse serum BuChE using butyrylthiocholine chloride by spectrophotometry.
For assay [8], the target named is Acetylcholinesterase (Electrophorus electricus) (UniProt O42275). Description: Inhibition of electric eel AChE at 10 uM using acetylthiocholine chloride by spectrophotometry.

`COc1cc2c(cc1OC)C(NC(=O)CN1CCN(Cc3ccccc3F)CC1)c1cnn(C)c1-2` (stereo not drawn): the inhibition in assay [1] stood at 1%. Also, the pIC50 in assay [2] was 5.61; in assay [3], 6.14.

On to `O=C(CN1CCN(Cc2ccccc2)CC1)NC1c2cnn(-c3ccccc3)c2-c2c(Br)sc(Br)c21` (stereo not drawn), for which, in assay [1], the inhibition was 37%. The pIC50 in assay [2] is 6.06; in assay [3], 6.54.

As to `COc1cc2c(cc1OC)C(NC(=O)CN1CCN(Cc3ccccc3F)CC1)c1cn[nH]c1-2` (stereo not drawn), the inhibition in assay [4] worked out at 50%. The compound also had a pIC50 in assay [3] of 5.40.

The compound `Cn1ncc2c1-c1c(Br)sc(Br)c1C2NC(=O)CN1CCN(Cc2ccccc2F)CC1` (stereo not drawn) had a pKi in assay [5] of 6.37. The same compound gave an inhibition in assay [1] of 30%. The values for the pIC50 in assay [2] and in assay [3] were 6.06 and 6.62, respectively.

For the compound `O=C(CN1CCN(Cc2ccccc2)CC1)NC1c2cn[nH]c2-c2c(Br)sc(Br)c21` (stereo not drawn), the negative logarithm of the IC50 (pIC50) is 5.95 in assay [2] and 5.05 in assay [3].

On to `Cn1ncc2c1-c1c(Br)sc(Br)c1C2NC(=O)CN1CCN(Cc2ccccc2)CC1` (stereo not drawn), for which, in assay [6], the pKi is 6.63. Besides, the pIC50 in assay [7] is 5.11; in assay [2], 6.48; in assay [3], 7.00.

In turn, `O=C(CN1CCN(Cc2ccccc2)CC1)NC1c2cn[nH]c2-c2sccc21` (stereo not drawn) gave a pIC50 in assay [2] of 5.04. Besides, the inhibition in assay [8] amounted to 49%.

With `O=C(CN1CCN(Cc2ccccc2F)CC1)NC1c2cnn(-c3ccccc3)c2-c2c(Br)sc(Br)c21` (stereo not drawn), the inhibition turned out to be 15% in assay [4] and 27% in assay [8].

With `COc1cc2c(cc1OC)C(NC(=O)CN1CCN(Cc3ccccc3)CC1)c1cnn(C)c1-2` (stereo not drawn), the figures for the pIC50 in assay [2] and in assay [3] were 5.74 and 5.89, respectively.

On to `COc1cc2c(cc1OC)C(NC(=O)CN1CCN(Cc3ccccc3)CC1)c1cn[nH]c1-2` (stereo not drawn), for which the inhibition in assay [4] turned out to be 49%. In assay [3], this compound had a pIC50 of 5.53.

For the compound `COc1cc2c(cc1OC)C(NC(=O)CN1CCN(Cc3ccccc3F)CC1)c1cnn(-c3ccccc3)c1-2` (stereo not drawn), the inhibition in assay [1] stood at 8%. For the same compound, the pIC50 in assay [2] was 5.61; in assay [3] it was 6.68.

The compound `O=C(CN1CCN(Cc2ccccc2F)CC1)NC1c2cn[nH]c2-c2c(Br)sc(Br)c21` (stereo not drawn) came in with an inhibition in assay [4] of 42%. Also, the pIC50 in assay [3] is 5.34.

For the compound `O=C(CN1CCN(Cc2ccccc2)CC1)NC1c2ccsc2-c2c1cnn2-c1ccccc1` (stereo not drawn), the inhibition was determined as 36% in assay [4] and 31% in assay [8].

With `COc1cc2c(cc1OC)C(NC(=O)CN1CCN(Cc3ccccc3)CC1)c1cnn(-c3ccccc3)c1-2` (stereo not drawn), the pIC50 in assay [2] is 5.52; in assay [3] it was 5.87.

As to `O=C(CN1CCN(Cc2ccccc2F)CC1)NC1c2ccsc2-c2c1cnn2-c1ccccc1` (stereo not drawn), in assay [4], the inhibition was determined as 42%. Besides, the pIC50 in assay [3] is 5.39.

With `Cn1ncc2c1-c1sccc1C2NC(=O)CN1CCN(Cc2ccccc2F)CC1` (stereo not drawn), the pIC50 in assay [2] and in assay [3] was 5.88 each time.

Take `O=C(CN1CCN(Cc2ccccc2F)CC1)NC1c2cn[nH]c2-c2sccc21` (stereo not drawn): in assay [4], the inhibition was 42%. Moreover, the pIC50 in assay [3] is 5.34.

`Cn1ncc2c1-c1sccc1C2NC(=O)CN1CCN(Cc2ccccc2)CC1` (stereo not drawn): the pIC50 is 6.03 in assay [2] and 5.72 in assay [3].
